US20110104289A1, “METHOD AND PHARMACEUTICAL COMPOSITION FOR OBTAINING THE PLASMATIC PROGESTERONE LEVELS REQUIRED FOR DIFFERENT THERAPEUTIC INDICATIONS” (POSI VISIONARY SOLUTIONS LLP, priority 2008, published 2011)

Test: Progesterone plasma levels after intramuscular-type injection of injectable aqueous suspension of progesterone particles
Type: in vivo, post-menopausal women
Conditions: female, human, humans, across the dosing schemes (100-300 mg, single or repeated injection), read-out: maximum plasma concentrations (Cmax)
Experimental: 12 post-menopausal women were administered with a 100 mg single injection of progesterone spherical microparticles, in the form of an injectable aqueous suspension. Obtained plasma levels are illustrated in FIG. 1, wherein progesterone plasma concentrations are observed to be maintained up to 7 days in suitable levels for several therapies requiring said progesterone concentrations. 12 post-menopausal women were administered with a single 200 mg injection of progesterone spherical microparticles in the form of an injectable aqueous suspension. Obtained plasma levels are illustrated in FIG. 2, wherein progesterone plasma concentrations are observed to be maintained up to 7 days in suitable levels for several therapies requiring said progesterone concentrations and described in page 2. Four 200 mg repeated injections of progesterone spherical microparticles were administered in the form of an injectable aqueous suspension to 15 post-menopausal women. Obtained plasma levels are illustrated in FIG. 3, wherein progesterone plasma concentrations are observed to be maintained up to 7 days in suitable levels for several therapies requiring said progesterone concentrations and described in page 2. Four 300 mg repeated injections of progesterone spherical microparticles were administered in the form of an injectable aqueous suspension to 13 post-menopausal women. […]

SMILES: CC(=O)[C@H]1CC[C@H]2[C@@H]3CCC4=CC(=O)CC[C@]4(C)[C@H]3CC[C@]12C [progesterone]
- Cmax: 12 to 42 ng/mL
